For test [1], the target named is T1, recombinant human HDAC-1 enzyme (rHDAC-1) (Homo sapiens, UniProt Q13547).
T1 construct: made in house; host or cells: Baculovirus insect cell expression system
Kind of test: Histone deacetylase inhibition, recombinant human HDAC-1. The note with it: cloned recombinant human HDAC-1, Baculovirus insect cell expression; read-out: rHDAC-1 IC50. In kind it is biochemical. The protocol: (§1) The reaction was stopped by adding acetic acid (0.04 M, final concentration) and HCl (250 mM, final concentration). The mixture was extracted with ethyl acetate and the released [^3H]-acetic acid was quantified by scintillation counting. For inhibition studies, the enzyme was preincubated with compounds at 4° C. for 30 minutes prior to initiation of the enzymatic assay. IC50 values for HDAC enzyme inhibitors were determined by performing dose response curves with individual compounds and determining the concentration of inhibitor producing fifty percent of the maximal inhibition.

Test [2] deals with histone deacetylase enzyme in nuclear extracts from H446 cells (pooled HDACs). In words: Histone deacetylase inhibition, H446 nuclear extracts (pooled HDACs). In kind it is biochemical, human. To be noted: for pooled HDACs percent inhibition: percent inhibition at 20 μM (footnote); for IC50: H446 nuclear extract, [3H]-acetylated histone substrate. The protocol:
HDAC inhibitors were screened against histone deacetylase enzyme in nuclear extracts prepared from the human small cell lung cancer cell line H446 (ATTC HTB-171) and against a cloned recombinant human HDAC-1 enzyme expressed and purified from a Baculovirus insect cell expression system.
as §1, with “For deacetylase assays, 20,000 cpm of the [^3H]-metabolically labeled acetylated histone substrate (M. Yoshida et al., J. Biol. Chem. 265(28): 17174-17179 (1990)) was incubated with 30 μg of H446 nuclear extract or an equivalent amount of the cloned recombinant hHDAC-1 for 10 minutes at 37° C. The reaction” for “The reaction”

T1 sequence (Q13547 whole entry): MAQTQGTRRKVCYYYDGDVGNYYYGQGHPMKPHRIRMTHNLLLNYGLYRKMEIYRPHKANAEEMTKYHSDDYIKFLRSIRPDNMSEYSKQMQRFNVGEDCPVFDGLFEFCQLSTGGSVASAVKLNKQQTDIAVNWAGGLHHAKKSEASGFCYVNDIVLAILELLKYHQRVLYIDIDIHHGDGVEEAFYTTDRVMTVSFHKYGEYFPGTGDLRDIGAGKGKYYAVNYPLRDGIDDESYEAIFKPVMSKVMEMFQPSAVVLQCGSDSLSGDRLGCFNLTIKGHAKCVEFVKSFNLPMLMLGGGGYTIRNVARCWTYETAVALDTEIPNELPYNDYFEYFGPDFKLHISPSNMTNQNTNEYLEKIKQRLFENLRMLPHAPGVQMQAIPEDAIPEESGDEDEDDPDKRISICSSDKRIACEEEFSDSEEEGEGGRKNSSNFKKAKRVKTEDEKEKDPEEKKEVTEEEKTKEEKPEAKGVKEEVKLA

Consider `O=C(CCCCCCC(=O)c1cccnc1)NO` [Compound 141a1, N-Hydroxy-7-[(3-pyridyl)carbonyl]heptanamide], for which the IC50 in test [1] was 60 nM. Besides, in test [2], the “pooled HDACs percent inhibition @ 1 μM” value is 22%@ 1 μM.

On to `Nc1ccccc1NC(=O)CCCCCn1cnc2ccccc2c1=O` [Compound 239a, N-(2-Aminophenyl)-6-[3-(4-oxo-4H-quinazolinyl)]hexanamide], for which, in test [2], the “pooled HDACs percent inhibition” value is listed as 0%.

For the compound `Nc1ccccc1NC(=O)CCCCCCC(=O)c1ccc2ccccc2c1` [Compound 63, N-(2-Aminophenyl)-7-(2-naphthoyl)heptanamide], the results for the IC50 in test [1] and in test [2] were 2200 nM and > 20000 nM, respectively.

As for `O=C(CCCCCCC(=O)c1cc2ccccc2o1)NO` [Compound 52l, N-hydroxy-7-(2-benzofuran)carbonylheptanamide], the IC50 in test [1] stood at 30 nM; in test [2], 300 nM.

On to `COc1ccc2cc(C(=O)CCCCCCC(=O)NO)ccc2c1` [Compound 105a, N-Hydroxy-7-[2-(6-methoxy)naphthoyl]heptanamide], for which the IC50 in test [1] stood at 10 nM. In addition, the “pooled HDACs percent inhibition @ 1 μM” value in test [2] is 83%@ 1 μM.

In the case of `Nc1ccccc1NC(=O)CCCCCN1C(=O)c2ccccc2C1=O` [Compound 243a, N-(2-Aminophenyl)-6-(N-phthaloyl)hexanamide], in test [1], the 50% inhibitory concentration (IC50) worked out at 1600 nM. Further, the “pooled HDACs percent inhibition” value in test [2] is given as 6%.

As for `O=C(CCCCCC/C(=N/O)c1ccc(-c2ccccc2)cc1)NO` [(Z)-51h, N-Hydroxy-8-(Z)-oximino-8-(4-biphenyl)octanamide], the “pooled HDACs percent inhibition” value in test [2] was 75%.

`O=C(NCCCCCCC(=O)c1ccccc1)Nc1ccccc1O` [Compound 253]: the half-maximal inhibitory concentration (IC50) in test [1] is > 20000 nM. Moreover, the “pooled HDACs percent inhibition” value in test [2] came out at 0%.

With `O=C(CCCCCCC(=O)c1ccc(N2CCOCC2)cc1)NO` [Compound 138i, N-Hydroxy-7-[4-(N-morpholinyl)benzoyl]heptanamide], the IC50 in test [1] was determined as 33 nM; in test [2] it was 100 nM.

Turning to `O=C(CCCCCNS(=O)(=O)c1ccccc1)NO` [Compound 47, N-Hydroxy-6-(benzenesulfonylamino)hexanamide], the IC50 was 500 nM in test [1] and 4500 nM in test [2].

With `Nc1ccccc1NC(=O)CCCCCCC(=O)c1cccc2ccccc12` [Compound 53f, N-(2-Aminophenyl)-7-(1-naphthoyl)heptanamide], in test [1], the IC50 was 2000 nM. Further, the “pooled HDACs percent inhibition” value in test [2] was 3%.

For `O=C(CCCCCC/C(=N\O)c1cc2ccccc2s1)NO` [Compound 99, N-Hydroxy-8-(Z)-oximino-8-(2-benzo[b]thiophene)octanamide], the IC50 is 8 nM in test [1] and 35 nM in test [2].

Regarding `O=C(CCCCCCC(=O)c1ccc(-c2ccccc2)cc1)Nc1ccccc1O` [Compound 74, N-(2-Hydroxyphenyl)-7-[(4-biphenyl)carbonyl]heptanamide], the concentration for half-maximal inhibition (IC50) in test [1] was 7800 nM. The “pooled HDACs percent inhibition” value in test [2] is 0%.

For the compound `O=C(CCCCCCC(=O)c1cc2ccccc2s1)NO` [Compound 52m, N-hydroxy-7-(2-benzothiophene)carbonylheptanamide], the IC50 amounted to 10 nM in test [1] and 100 nM in test [2].

`COc1ccc(C(=O)C(C)(C)CCCCC(=O)NO)cc1` [Compound 58, N-Hydroxy-6-methyl-6-(4-methoxybenzoyl)-heptanamide]: the IC50 amounted to 250 nM in test [1] and 3000 nM in test [2].

For `COc1ccc(C(OC)C(C)(C)/C=C/C=C/C(=O)NO)cc1` (stereo not shown) [Compound 26, N-Hydroxy-6,6-dimethyl-7-methoxy-7-(4-methoxyphenyl)-2,4-heptadienamide], the IC50 in test [1] came to 1000 nM; in test [2] it was 5000 nM.

As for `O=C(CCCCCCC(=O)c1ccc(C(F)(F)F)cc1)NO` [Compound 52c, N-hydroxy-7-(4-trifluoromethylbenzoyl)heptanamide], the values for the IC50 in test [1] and in test [2] were 60 nM and 550 nM, respectively.

On to `COc1ccc(C(OC)C(C)(C)CCCCC(=O)NO)cc1` (stereo not shown) [Compound 28, N-Hydroxy-6,6-dimethyl-7-methoxy-7-(4-methoxyphenyl)heptanamide], for which the 50% inhibitory concentration (IC50) worked out at 100 nM in test [1] and 4000 nM in test [2].

In the case of `CC(=O)SCC(=O)CCCCCCC(=O)c1cc2ccccc2n1C` [Compound 165, 1-Acetylthio-2,9-dioxo-9-(2-(N-methyl)indolyl)-nonane], the values for the IC50 in test [1] and in test [2] were 90 nM and 40 nM, respectively.

As for `COc1ccc(/C(CCCCCCC(=O)NO)=N/O)cc1` [Compound 96, N-Hydroxy-8-(E)-oximino-8-(4-methoxyphenyl)octanamide], the IC50 worked out at 35 nM in test [1] and 100 nM in test [2].

For the compound `CC(CCC(=O)NO)CC(C)C(=O)c1ccc(N(C)C)cc1` (stereo not shown) [Compound 62, N-Hydroxy-4-Methyl-6-[4-(N,N-dimethylamino)benzoyl]heptanamide], the 50% inhibitory concentration (IC50) in test [2] is 1100 nM.

As to `COc1ccc(C(OC)C(C)(C)/C=C/C=C/C(=O)Nc2ccccc2N)cc1` (stereo not shown) [Compound 27, N-(2-Aminophenyl)-6,6-dimethyl-7-methoxy-7-(4-methoxyphenyl)-2,4-heptadienamide], in test [2], the IC50 is > 100000 nM.

For `CC(/C=C/C(=O)NO)=C\C(C)Cc1ccc(N(C)C)cc1` (stereo not shown) [Compound 38, N-Hydroxy-4,6-dimethyl-7-[4-(N,N-dimethylamino)phenyl]-2,4-heptadienamide], in test [2], the IC50 is > 20000 nM.

For the compound `Nc1ccccc1CNC(=O)CCCCCCC(=O)c1ccc(-c2ccccc2)cc1` [Compound 75, N-(2-Aminobenzyl)-7-[(4-biphenyl)carbonyl]heptanamide], the half-maximal inhibitory concentration (IC50) in test [1] amounted to 8400 nM. Moreover, the “pooled HDACs percent inhibition” value in test [2] amounted to 0%.

Take `Nc1ccccc1NC(=O)NCCCCCCC(=O)c1ccccc1` [Compound 89, N-(2-Aminophenyl)-N′-[6-(benzoyl)hexyl]urea]: the concentration for half-maximal inhibition (IC50) in test [1] came to 16300 nM. In addition, the “pooled HDACs percent inhibition” value in test [2] was 0%.

On to `CSc1ncccc1C(=O)CCCCCCC(=O)NO` [Compound 105b], for which the half-inhibitory concentration (IC50) in test [1] worked out at 20 nM. In addition, in test [2], the “pooled HDACs percent inhibition @ 1 μM” value is reported as 40%@ 1 μM.

On to `O=C(CCCCCCC(=O)c1ccccc1)CSC(=O)c1ccccc1` [Compound 159f, 1-Benzoylthio-2,9-dioxo-9-phenyl-nonane], for which the values for the 50% inhibitory concentration (IC50) in test [1] and in test [2] were 700 nM and 350 nM, respectively.

Turning to `Nc1ccccc1NC(=O)CCCCCCC(=NO)c1ccc2ccccc2c1` (mixture of isomers) [Compound 106, N-(2-Aminophenyl)-8-(E)-oximino-8-(2-naphthyl)octanamide], the figures for the IC50 in test [1] and in test [2] were 4000 nM and > 20000 nM, respectively.

On to `Cn1c(C(=O)CCCCCCC(=O)NO)cc2ccccc21` [Compound 103, N-Hydroxy-7-[2-((N-methyl)indolyl)carbonyl]heptanamide], for which the half-inhibitory concentration (IC50) in test [1] was 50 nM; in test [2], 100 nM.

Compound `COC(C/C=C/C=C/C(=O)NO)c1ccccc1` (stereo not shown) [Compound 12, N-Hydroxy-7-methoxy-7-phenyl-2,4-heptadienamide] registered an IC50 in test [2] of 9400 nM.

For the compound `Nc1ccccc1NC(=O)CCCCCN1C(=O)c2cccc3cc(O)cc(c23)C1=O` [Compound 251a, N-(2-Aminophenyl)-6-[2-(5-hydroxy-1,3-dioxo-1H,3H-benzo[de]isoquinolinyl)]hexanamide], the “pooled HDACs percent inhibition” value in test [2] is 0%.

`O=C(CCCCCCC(=O)c1ccc(N2CCCCC2)cc1)NO` [Compound 138h, N-Hydroxy-7-[4-(1-piperidinyl)benzoyl]heptanamide] had an IC50 in test [2] of 48 nM.

In the case of `O=C(CCCCCCC(=O)c1ccc(Br)cc1)NO` [Compound 52d, N-hydroxy-7-(4-bromobenzoyl)heptanamide], inhibition in test [2] was half-maximal at 50 nM (IC50).

`O=C(CCCCCCC(=O)c1cccs1)NO` [Compound 52k, N-hydroxy-7-(2-thiophene)carbonylheptanamide] gave an IC50 in test [2] of 900 nM.

In turn, `CC(CCCCCC(=O)c1ccc2ccccc2c1)C(=O)NO` (stereo not shown) [Compound 175, N-Hydroxy-2-methyl-7-(2-naphthoyl)heptanamide] yielded a half-maximal inhibitory concentration (IC50) in test [2] of 2500 nM.

Consider `COC(c1ccc(N(C)C)cc1)C(C)/C=C(C)/C=C/C(=O)NO` (stereo not shown) [Compound 33, N-Hydroxy-4,6-dimethyl-7-methoxy-7-[4-(N,N-dimethylamino)phenyl]-2,4-heptadienamide], for which the IC50 in test [2] is > 10000 nM.

For `O=C(CCCCCC/C(=N\O)c1ccc2ccccc2c1)NO` [Compound 97, N-Hydroxy-8-(E)-oximino-8-(2-naphthyl)octanamide], in test [2], half-maximal inhibition (IC50) required 30 nM.

In the case of `O=C(CCCCCCC(=O)c1ccccn1)NO` [Compound 141a2, N-Hydroxy-7-[(2-pyridyl)carbonyl]heptanamide], the “pooled HDACs percent inhibition @ 1 μM” value in test [2] is 12%@ 1 μM.

With `O=C(CCCCCC/C(=N\O)c1ccc(-c2ccccc2)cc1)NO` [(E)-51h, N-Hydroxy-8-(E)-oximino-8-(4-biphenyl)octanamide], in test [2], the “pooled HDACs percent inhibition” value is 99%.

As for `Nc1ccccc1NC(=O)CCCCCC(=O)c1ccc(-c2ccccc2)cc1` [Compound 129, N-(2-Aminophenyl)-6-[(biphenyl)carbonyl]hexanamide], the IC50 in test [1] was 1000 nM.

By IC50 is commonly meant the point on the concentration scale where inhibition reaches its midpoint.

(Values after patent US7288567B2, “Inhibitors of histone deacetylase” (Methylgene Inc., priority 2000, dated 2007).)
